In patent US20060264422A1, “Use of taurolidine as enhancer of the complement system” (priority 2005, published 2006):

Experiments:
C5a = assay: ELISA of complement anaphylatoxin C5a in serum; format: biochemical, human
Procedure: (§1) Complement anaphylatoxins C5a and C3a and the lytic complex (MAC, C5b-9) in the serum of healthy volunteers were determined quantitatively using commercially available ELISA (“enzyme-linked immunosorbent assay”) test systems. As described above, initially serum samples having various concentrations of taurolidine (0.1-5%, in parallel with samples containing Ringer solution in corresponding dilution ratios=controls) were incubated for 30 minutes at 37° C. The samples were then diluted according to the protocol of the manufacturer and pipetted into the wells of the microtiter plate. The subsequent incubation/washing steps were carried out according to the protocol of the manufacturer. […] The extinction was measured using an ELISA plate reader and the values were then converted to concentrations using the standard samples which had also been measured.

complement system = assay: CH50 assay (hemolysis of sensitized sheep erythrocytes by human serum); format: biochemical
Procedure: Using the CH50 assay, it is possible to assess functionally the total activity of the complement system, especially the classic activation pathway. […] In accordance with the protocol, a dilution series (1:20-1:480) was prepared for each condition and washed sheep erythrocytes which had been preincubated with hemolysin reagent were then added. During subsequent incubation at 37° C. for exactly 1 hour the erythrocytes were lysed depending on the activity of the complement system. In each experiment, a negative control (no hemolysis), a sample with 50% hemolysis (CH50, by dilution with dist. water) and a sample with 100% hemolysis (CH100, by dilution with dist. water) were analyzed in each case. After a final centrifugation, in each case 1 ml of the supernatant of each sample was removed and the absorption at 541 nm was determined photometrically. The determined absorptions were finally plotted against the dilutions. The activity (or the ability to lyse) of the complement system under the respective conditions could be assessed by the shape of the curves (shift to the left=complement activation) and by determining the dilution at which 50% of the erythrocytes have been lysed.

[1] = test system: membrane attack complex (MAC, C5b-9); assay: ELISA of lytic complex (MAC, C5b-9) in serum; format: biochemical, human; details: all dosis ranges studied (0.1-5% taurolidine); FIG. 7
Procedure: as §1

C3a = assay: ELISA of complement anaphylatoxin C3a in serum; format: biochemical, human
Procedure: as §1

[2] = at 0.5% taurolidine (concentration maximum)

With O=S1(=O)CCN(CN2CCS(=O)(=O)NC2)CN1 [taurolidine, 4,4′-methylenebis-(1,2,4-thiadiazine-1,1-dioxide)] the C5a (C5a; at 0.1% taurolidine (minimum)) was “no or even a tendency of reduced”, the “formation of C5a” value (C5a; [2]) was “enhances the formation” and the “concentration of complement component C5a compared to untreated serum” value (C5a; serum with taurolidine 0.1-5%, 30 min, 37° C., FIGS. 5-6) was “increased compared to untreated serum”. The “hemolytic activity (activity of the complement system)” value (complement system; human serum of healthy volunteers incubated with 0.1-1% taurolidine, 30 min, 37° C., FIGS. 1-3) was “significantly increases”, the “complement activation (hemolytic activity), temperature dependence” value (complement system; incubation at 0-4° C., FIG. 2) was “not at 0-4 °C” and the “serum concentration of the membrane attack complex (MAC)” value [1] was “elevated significantly”. For the same compound, the C3a (C3a; at 0.1% taurolidine (minimum)) was “no or even a tendency of reduced”, the “formation of C3a” value (C3a; [2]) was “enhances the formation” and the “concentration of complement component C3a compared to untreated serum” value (C3a; serum with taurolidine 0.1-5%, 30 min, 37° C., FIG. 4) was “increased compared to untreated serum”.
